# Measurements from patent US5530126A, “Process for the preparation of substituted 6-(pyrazol-3yl)-1,4-benzoxazin-3-ones” (Monsanto Company, priority 1994, dated 1996).
# Legend:
# Type in all cases: in vivo
# Velvetleaf [1] = assay: Post-emergence herbicide test; conditions: Abutilon theophrasti, read-out: % plant inhibition (Vele)
# Outline: (§1)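 Plants grown from seed or vegetative propagules in greenhouse soil pans were sprayed at two to three weeks of age by atomizer at 170.3 kPa, delivering 1870 L/Ha containing about 0.4% v/v emulsifier. Injury versus untreated controls was scored as percent inhibition at about 11 days, sometimes again near 25 days.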
# Morningglory [2] = assay: Post-emergence herbicide test; conditions: Ipomoea, read-out: % plant inhibition (Mogl)
# Outline: as §1
# Cocklebur [3] = assay: Post-emergence herbicide test; conditions: Xanthium strumarium, read-out: % plant inhibition (Cobu)
# Outline: as §1
# Annual bluegrass [4] = assay: Post-emergence herbicide test; conditions: read-out: % plant inhibition (Anbg)
# Outline: as §1
# Barnyardgrass [5] = assay: Post-emergence herbicide test; conditions: Echinochloa crus-galli, read-out: % plant inhibition (Bygr)
# Outline: as §1
# Downy Brome [6] = assay: Post-emergence herbicide test; conditions: Bromus tectorum, read-out: % plant inhibition (Dobr)
# Outline: as §1
# Indian Mustard [7] = assay: Post-emergence herbicide test; conditions: Brassica juncea, read-out: % plant inhibition (Inmu)
# Outline: as §1
# Seedling johnsongrass [8] = assay: Post-emergence herbicide test; conditions: Sorghum halepense, read-out: % plant inhibition (Sejg)
# Outline: as §1
# Wild buckwheat [9] = assay: Post-emergence herbicide test; conditions: Fallopia convolvulus, read-out: % plant inhibition (Wibw)
# Outline: as §1
# Yellow nutsedge [10] = assay: Post-emergence herbicide test; conditions: Cyperus, read-out: % plant inhibition (Yens)
# Outline: as §1
# Velvetleaf [11] = assay: Pre-emergence herbicide test; conditions: Abutilon theophrasti, read-out: % plant inhibition (Vele)
# Outline: (§2)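 Pre-emergence soil application: compound in acetone or water carrier sprayed onto seeded topsoil surface, overlaid with untreated soil. Pans kept on greenhouse bench, watered from below. Read-out % inhibition, ~11 days post-treatment.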
# Morningglory [12] = assay: Pre-emergence herbicide test; conditions: Ipomoea, read-out: % plant inhibition (Mogl)
# Outline: as §2
# Cocklebur [13] = assay: Pre-emergence herbicide test; conditions: Xanthium strumarium, read-out: % plant inhibition (Cobu)
# Outline: as §2
# Annual bluegrass [14] = assay: Pre-emergence herbicide test; conditions: read-out: % plant inhibition (Anbg)
# Outline: as §2
# Barnyardgrass [15] = assay: Pre-emergence herbicide test; conditions: Echinochloa crus-galli, read-out: % plant inhibition (Bygr)
# Outline: as §2
# Downy Brome [16] = assay: Pre-emergence herbicide test; conditions: Bromus tectorum, read-out: % plant inhibition (Dobr)
# Outline: as §2
# Indian Mustard [17] = assay: Pre-emergence herbicide test; conditions: Brassica juncea, read-out: % plant inhibition (Inmu)
# Outline: as §2
# Seedling johnsongrass [18] = assay: Pre-emergence herbicide test; conditions: Sorghum halepense, read-out: % plant inhibition (Sejg)
# Outline: as §2
# Wild buckwheat [19] = assay: Pre-emergence herbicide test; conditions: Fallopia convolvulus, read-out: % plant inhibition (Wibw)
# Outline: as §2
# Yellow nutsedge [20] = assay: Pre-emergence herbicide test; conditions: Cyperus, read-out: % plant inhibition (Yens)
# Outline: as §2
compound,measurement,setting,value
Cn1nc(-c2cc(NC(=O)C(F)(F)F)c(Cl)cc2Cl)c(Cl)c1C(F)(F)F [Compound 88],inhibition at 11210 g/ha,Velvetleaf [1]; 11.21 kg/ha,100%
same,inhibition at 11210 g/ha,Morningglory [2]; 11.21 kg/ha,100%
same,inhibition at 11210 g/ha,Cocklebur [3]; 11.21 kg/ha,100%
same,inhibition at 11210 g/ha,Annual bluegrass [4]; 11.21 kg/ha,10%
same,inhibition at 11210 g/ha,Barnyardgrass [5]; 11.21 kg/ha,50%
same,inhibition at 11210 g/ha,Downy Brome [6]; 11.21 kg/ha,10%
same,inhibition at 11210 g/ha,Indian Mustard [7]; 11.21 kg/ha,60%
same,inhibition at 11210 g/ha,Seedling johnsongrass [8]; 11.21 kg/ha,70%
same,inhibition at 11210 g/ha,Wild buckwheat [9]; 11.21 kg/ha,100%
same,inhibition at 11210 g/ha,Yellow nutsedge [10]; 11.21 kg/ha,0%
same,inhibition at 11210 g/ha,Velvetleaf [11]; 11.21 kg/ha,80%
same,inhibition at 11210 g/ha,Morningglory [12]; 11.21 kg/ha,10%
same,inhibition at 11210 g/ha,Cocklebur [13]; 11.21 kg/ha,20%
same,inhibition at 11210 g/ha,Annual bluegrass [14]; 11.21 kg/ha,20%
same,inhibition at 11210 g/ha,Barnyardgrass [15]; 11.21 kg/ha,10%
same,inhibition at 11210 g/ha,Downy Brome [16]; 11.21 kg/ha,10%
same,inhibition at 11210 g/ha,Indian Mustard [17]; 11.21 kg/ha,20%
same,inhibition at 11210 g/ha,Seedling johnsongrass [18]; 11.21 kg/ha,30%
same,inhibition at 11210 g/ha,Wild buckwheat [19]; 11.21 kg/ha,100%
same,inhibition at 11210 g/ha,Yellow nutsedge [20]; 11.21 kg/ha,10%
"CCOC(=O)c1cc(-c2nn(C)c(C(F)(F)F)c2Cl)c(F)cc1Cl [Compound 148, 2-Chloro-5-(4-chloro-1-methyl-5-(trifluoromethyl)-1H-pyrazol-3-yl)-4-fluorobenzoic acid, ethyl ester]",inhibition at 1120 g/ha,Velvetleaf [1]; 1.12 kg/ha,100%
same,inhibition at 1120 g/ha,Morningglory [2]; 1.12 kg/ha,100%
same,inhibition at 1120 g/ha,Cocklebur [3]; 1.12 kg/ha,100%
same,inhibition at 1120 g/ha,Annual bluegrass [4]; 1.12 kg/ha,100%
same,inhibition at 1120 g/ha,Barnyardgrass [5]; 1.12 kg/ha,100%
same,inhibition at 1120 g/ha,Downy Brome [6]; 1.12 kg/ha,100%
same,inhibition at 1120 g/ha,Indian Mustard [7]; 1.12 kg/ha,100%
same,inhibition at 1120 g/ha,Seedling johnsongrass [8]; 1.12 kg/ha,100%
same,inhibition at 1120 g/ha,Wild buckwheat [9]; 1.12 kg/ha,100%
same,inhibition at 1120 g/ha,Yellow nutsedge [10]; 1.12 kg/ha,20%
same,inhibition at 1120 g/ha,Velvetleaf [11]; 1.12 kg/ha,100%
same,inhibition at 1120 g/ha,Morningglory [12]; 1.12 kg/ha,100%
same,inhibition at 1120 g/ha,Cocklebur [13]; 1.12 kg/ha,90%
same,inhibition at 1120 g/ha,Annual bluegrass [14]; 1.12 kg/ha,70%
same,inhibition at 1120 g/ha,Barnyardgrass [15]; 1.12 kg/ha,90%
same,inhibition at 1120 g/ha,Downy Brome [16]; 1.12 kg/ha,80%
same,inhibition at 1120 g/ha,Indian Mustard [17]; 1.12 kg/ha,100%
same,inhibition at 1120 g/ha,Seedling johnsongrass [18]; 1.12 kg/ha,50%
same,inhibition at 1120 g/ha,Wild buckwheat [19]; 1.12 kg/ha,100%
same,inhibition at 1120 g/ha,Yellow nutsedge [20]; 1.12 kg/ha,0%
